Common to all, as to assay type: cell-based, human
In assay [1] the test system is foreskin cells in which senescence was induced by doxorubicin. Briefly: CellTiter-Glo cell viability of doxorubicin-induced senescent foreskin cells (Examples 1-2, 10, 11, 13; Tables 4, 63, 65). As to conditions: Homo sapiens, 72 h, doxorubicin-induced senescent foreskin cells, CellTiter-Glo, 0 μM = 100, read-out: Survival (%); for viability at 1.1 µM: 1.1 μM test compound; for viability at 10 µM: 10 μM test compound; for viability at 30 µM: 30 μM test compound; for viability at 90 µM: 90 μM test compound; for viability at […]: […] test compound.
Description: After 3 days, cell viability was measured using CellTiter-Glo Luminescent Cell Viability Assay (Promega) or light microscopy.

For assay [2], the system named is HMGN1. Briefly: HMGN1 ELISA in culture medium of foreskin cells (Examples 10, 11; Tables 62, 63, 64). As to conditions: Homo sapiens, doxorubicin-treated foreskin cells, DMSO = 100; for activity at 30 µM: 30 μM test compound, read-out: HMGN1; for activity at 90 µM: 90 μM test compound. On the technique in general: In an ELISA, binding on a coated surface is turned into a signal by an enzyme label.

Assay [3] has as its system HMGN1. Briefly: HMGN1 ELISA in culture medium of A549 cancer cells (Example 12, Table 66). The settings on record: Homo sapiens, A549, doxorubicin-induced senescent A549 cells, ELISA, DMSO = 100, read-out: HMGN1 (amount of HMGN1 secreted in the cell culture); for activity at 30 µM: test compound 30 μM; for activity at 90 µM: test compound 90 μM.
Assay [4] deals with A549. The assay can be described thus: CellTiter-Glo cell viability of senescent A549 cancer cells (Example 12, Table 67). The settings on record: Homo sapiens, A549, doxorubicin-induced senescent A549 cancer cells, CellTiter-Glo, read-out: Survival (%); for viability at 1.1 µM: 1.1 μM test compound; for viability at 10 µM: 10 μM test compound; for viability at 30 µM: 30 μM test compound; for viability at 90 µM: 90 μM test compound. (In general: Cellular ATP, detected with luciferase, serves as a proxy for viable cell number.)

In the case of `CCCC[C@H]1Cc2c([nH]c3ccccc23)[C@H](c2ccc(C(=O)NC34CC5CC(CC(C5)C3)C4)cc2)N1C(=O)CCl` [LX-420], the viability at 1.1 µM in assay [1] came to 0%; in assay [4] it was 10%. Besides, the activity at 30 µM in assay [2] was found to be 286%; in assay [3], 307%.

As for `CCCCC/C=C\C/C=C\CCCCCCCC(=O)O` [LX-2703, Linoleic acid], in assay [1], the viability at 1.1 µM turned out to be 100%, the viability at 10 µM is 89.5%, the viability at 30 µM was 55.2% and the viability at 90 µM was found to be 35.2%. The viability at […] in assay [1] is 100%. Besides, in assay [2], the activity at 90 µM is 218%. In assay [3], the activity at 90 µM is 202%. Also, in assay [4], the viability at 1.1 µM came out at 101%, the viability at 10 µM was found to be 99.6%, the viability at 30 µM came to 71.5% and the viability at 90 µM is 28.3%.

Regarding `Cc1c(-c2ccc(-c3ccccc3F)cc2)nc2ccc(F)cc2c1C(=O)O` [LX-1602, Brequinar, reference compound], in assay [1], the viability at 1.1 µM stood at 109%, the viability at 10 µM amounted to 57.7%, the viability at 30 µM came to 36.4% and the viability at […] stood at 93.8%. Further, the activity at 30 µM in assay [2] is 228%. Besides, in assay [3], the activity at 30 µM is 197%. In assay [4], the viability at 1.1 µM amounted to 94.3%, the viability at 10 µM came out at 96.5% and the viability at 30 µM turned out to be 39.8%.

Regarding `Cc1ccc(-c2c(C#N)c(N)n3c(nc4ccccc43)c2C#N)cc1` [LX-1101], in assay [1], the viability at 1.1 µM came to 108%, the viability at 10 µM stood at 47.1%, the viability at 30 µM stood at 22.8% and the viability at […] stood at 112%. Also, the activity at 30 µM in assay [2] was determined as 268%. For the same compound, the activity at 90 µM in assay [3] came to 183%. Also, in assay [4], the viability at 1.1 µM turned out to be 95.4%, the viability at 10 µM turned out to be 92.7%, the viability at 30 µM came out at 88.3% and the viability at 90 µM stood at 23.7%.

`C#CCOc1ccc2[nH]c3c(c2c1)C[C@H](C(=O)OC)N(C(=O)CCl)[C@H]3c1ccc(C(=O)NC23CC4CC(CC(C4)C2)C3)cc1` [LX-415]: the viability at 1.1 µM in assay [1] turned out to be 0.4%; in assay [4] it was 15.6%. For the same compound, the activity at 30 µM is 295% in assay [2] and 297% in assay [3].

On to `CCNC(=O)c1c(O)c(I)c(-n2cccc2)c2sc(N(CC)CC)nc12` [LX-912], for which, in assay [1], the viability at 1.1 µM stood at 104%, the viability at 10 µM is 32.7%, the viability at 30 µM worked out at 3.1% and the viability at […] came out at 85.2%. Besides, in assay [2], the activity at 30 µM was found to be 317%. Further, in assay [3], the activity at 90 µM came to 244%. Besides, in assay [4], the viability at 1.1 µM amounted to 92.4%, the viability at 10 µM was determined as 83.9%, the viability at 30 µM is 32.4% and the viability at 90 µM turned out to be 6.7%.

For `C=C(CN(C)C)C(=O)c1ccc(C)cc1C` [LX-923], in assay [1], the viability at 1.1 µM worked out at 97.7%, the viability at 10 µM amounted to 75.7%, the viability at 30 µM worked out at 19.5% and the viability at […] came out at 94.5%. In addition, in assay [2], the activity at 30 µM came out at 271%. Also, in assay [3], the activity at 90 µM was 219%. Also, in assay [4], the viability at 1.1 µM was 96.7%, the viability at 10 µM amounted to 89.4%, the viability at 30 µM stood at 81.7% and the viability at 90 µM stood at 15.7%.

Take `Cn1cc(-c2ccccc2)c(-n2cccc2)n1` [LX-907]: in assay [1], the viability at 1.1 µM worked out at 98.8%, the viability at 10 µM was found to be 62.8%, the viability at 30 µM is 9.7% and the viability at […] was found to be 95.1%. For the same compound, in assay [2], the activity at 30 µM came out at 297%. Also, the activity at 90 µM in assay [3] amounted to 264%. Further, in assay [4], the viability at 1.1 µM worked out at 90.1%, the viability at 10 µM worked out at 78.5%, the viability at 30 µM came out at 53.7% and the viability at 90 µM was found to be 5.9%.

Regarding `Cc1c(O)ccc2c1OCC(c1ccc(O)cc1)C2c1ccc(O)cc1` (centres unmarked) [LX-1605], in assay [1], the viability at 1.1 µM came to 83.4%, the viability at 10 µM was 43.7%, the viability at 30 µM worked out at 11.3% and the viability at […] turned out to be 63.8%. Further, the activity at 30 µM in assay [2] turned out to be 284%. Also, in assay [3], the activity at 30 µM came to 338%. Also, in assay [4], the viability at 1.1 µM came out at 91.7%, the viability at 10 µM came to 41.8% and the viability at 30 µM is 6.4%.

For the compound `C[C@@H]1CC[C@H]2[C@@H](C)C(=O)O[C@@H]3O[C@@]4(C)CC[C@@H]1[C@]32OO4` [LX-506, Artemisinin, reference compound], in assay [1], the viability at 1.1 µM is 101%, the viability at 10 µM came out at 91%, the viability at 30 µM was 78% and the viability at 90 µM stood at 33.2%. Further, the viability at […] in assay [1] was 97.2%. In addition, in assay [2], the activity at 90 µM came out at 169%. Further, the activity at 90 µM in assay [3] stood at 169%. Besides, in assay [4], the viability at 1.1 µM turned out to be 109%, the viability at 10 µM amounted to 93.8%, the viability at 30 µM amounted to 91.4% and the viability at 90 µM was found to be 44.2%.

As to `COC(=O)c1ccc([C@H]2c3ccc(OC)cc3C[C@H](C(=O)OC)N2C(=O)CCl)cc1` [LX-416], the values for the viability at 1.1 µM in assay [1] and in assay [4] were 70.3% and 91.4%, respectively. In addition, in assay [1], the viability at […] worked out at 29.1%. For the same compound, the activity at 30 µM in assay [2] turned out to be 293%; in assay [3], 315%.

Regarding `C[C@H]1[C@H](C)CC[C@]2(C(=O)O)CC[C@]3(C)C(=CC[C@@H]4[C@@]5(C)CC[C@H](O)C(C)(C)[C@@H]5CC[C@]43C)[C@H]12` [LX-2001, Ursolic acid], the viability at 1.1 µM in assay [1] is 75.2%; in assay [4] it was 98.3%. Further, in assay [1], the viability at […] was 0.8%. For the same compound, the activity at 30 µM in assay [2] and in assay [3] was 328% each time. In assay [4], the viability at 10 µM is 5.1%.

On to `CCn1c2ccc(CNC)cc2c2ccc(-c3cnoc3)cc21` [LX-903], for which, in assay [1], the viability at 1.1 µM turned out to be 104%, the viability at 10 µM amounted to 73.2%, the viability at 30 µM stood at 5.7% and the viability at […] worked out at 89.8%. In addition, the activity at 30 µM in assay [2] was determined as 324%. Moreover, the activity at 90 µM in assay [3] worked out at 239%. Besides, in assay [4], the viability at 1.1 µM worked out at 98.9%, the viability at 10 µM worked out at 81.6%, the viability at 30 µM is 42.7% and the viability at 90 µM came out at 12.3%.

As to `CCN(CC)C(=S)SSC(=S)N(CC)CC` [LX-1601, Disulfiram, reference compound], in assay [1], the viability at 1.1 µM came to 93.7%, the viability at 10 µM was 95.6%, the viability at 30 µM came to 61.4% and the viability at […] stood at 90%. Moreover, the activity at 30 µM in assay [2] came out at 154%. For the same compound, the activity at 90 µM in assay [3] was 257%. Besides, in assay [4], the viability at 1.1 µM stood at 114%, the viability at 10 µM came out at 118%, the viability at 30 µM is 74.2% and the viability at 90 µM was determined as 3.1%.

For `C#CC(=O)N1[C@@H](CCCC)Cc2cc(CO)ccc2[C@@H]1c1ccc(NC23CC4CC(CC(C4)C2)C3)cc1` [LX-421], the values for the viability at 1.1 µM in assay [1] and in assay [4] were 3.4% and 3.8%, respectively. The activity at 30 µM was found to be 293% in assay [2] and 328% in assay [3].

In the case of `COC(=O)c1ccc([C@@H]2c3ccc(OC)cc3C[C@H](C(=O)OC)N2C(=O)CCl)cc1` [LX-417], the viability at 1.1 µM amounted to 21.8% in assay [1] and 43.5% in assay [4]. Moreover, the activity at 30 µM in assay [2] is 294%; in assay [3] it was 347%.

Consider `O=C(O)CCCCC(CCSCc1ccccc1)SCc1ccccc1` (centres unmarked) [LX-3109, Devimistat, reference compound], for which, in assay [1], the viability at 1.1 µM was determined as 97.2%, the viability at 10 µM turned out to be 88.7%, the viability at 30 µM stood at 74% and the viability at 90 µM turned out to be 48.7%. Besides, the viability at […] in assay [1] came out at 96%. The viability at 270 µM in assay [1] (270 μM test compound) is 19.7%. The activity at 270 µM in assay [2] (270 μM test compound) is 232%. The activity at 270 µM in assay [3] (test compound 270 μM) came out at 247%. In assay [4], the viability at 1.1 µM stood at 108%, the viability at 10 µM was 85.7%, the viability at 30 µM was 68.2% and the viability at 90 µM was determined as 43.4%. Moreover, the viability at 270 µM in assay [4] (270 μM test compound) amounted to 0.1%.

Source of the values: patent US20250108036A1, “COMPOSITIONS FOR REMOVING SENESCENT CELLS AND USES THEREOF” (LIFECEUTIX CO., LTD., priority 2021, published 2025).
